The values that follow are results of earlier work, collected in patent US20100003319A1, “RALOXIFENE IMMEDIATE RELEASE TABLETS” (GLENMARK GENERICS LTD., priority 2008, published 2010).

In the case of `O=C(c1ccc(OCCN2CCCCC2)cc1)c1c(-c2ccc(O)cc2)sc2cc(O)ccc12` [raloxifene, [6-hydroxy-2-(4-hydroxyphenyl)-benzothiophen-3-yl]-[4-[2-(1-piperidyl)ethoxy]phenyl]-methanone], the Solubility in water result is “very slightly soluble”.
